Values joined by “and” are separate entries in the source; they are usually repeats but may differ in a detail not shown here. Equal values may be shown once.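 Growth conditions: 96-well plates. Treatment: test compound, 48 hours, 5 concentrations. Analysis: linear interpolation between bracketing concentrations; unreached endpoints set to highest concentration. Abbreviation: GI50, concentration required for 50% inhibition of growth. The concentration for full growth arrest is given as TGI.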 Some results are limits rather than exact numbers.

What all share (assay): inhibition of tumour cell growth, NCI panel, 48 h
In experiment [1] the test system is 786-0 renal.
The test system of experiment [2] is BT-549 breast.
Experiment [3] deals with CCRF-CEM leukemia.
Experiment [4] deals with EKVX NSCLC.
Experiment [5] has as its system HOP-92 NSCLC.
Experiment [6] relates to HT29 colon.
In experiment [7] the test system is MDA-MB-435.
Experiment [8] relates to NCI-H460 lung.
The test system of experiment [9] is RXF 393 renal.
Experiment [10] relates to SF-295 CNS.

In the case of `CCCS(=O)(=O)Nc1ccc(F)c(C(=O)c2c[nH]c3ncc(-c4ccc(Cl)cc4)cc23)c1F`, the GI50 in [1] was 4.13 µM and 5.43 µM; in [2], 5200 nM and > 7630 nM; in experiment [3], 4010 nM and 5420 nM; in experiment [4], 6.86 µM and > 10 µM; in experiment [5] it was 2630 nM and 4840 nM; in experiment [6], 88.7 nM and 81.2 nM. Further, the GI50 was 107 nM and 153 nM in experiment [7]; 3010 nM and 5000 nM in experiment [8]; 1890 nM and 3530 nM in experiment [9]; 2620 nM and 3170 nM in [10]. Moreover, the TGI in experiment [1] was 26.2 µM and > 10 µM; in experiment [2], 19.2 µM and > 10 µM; in experiment [3] it was 23.7 µM and > 10 µM; in [4], 40.7 µM and > 10 µM; in experiment [5] it was 12.5 µM and > 10 µM; in [6] it was 9.55 µM and > 10 µM. The TGI in [7] is 8.86 µM and > 10 µM; in experiment [8], 14 µM and > 10 µM; in experiment [9], 6.58 µM and > 10 µM; in experiment [10], 11.5 µM and > 10 µM.
As to `CN1/C(=C\C(I)C(I)C2=[N+](C)c3ccccc3C2(C)C)C(C)(C)c2ccccc21` (stereo not given), the GI50 in experiment [1] is 0.904 µM; in experiment [2], 119 nM; in experiment [3] it was 226 nM; in experiment [4] it was 0.369 µM; in experiment [5], 93.1 nM; in [6] it was 242 nM. For the same compound, the GI50 in experiment [7] is 260 nM; in experiment [8], 205 nM; in [9] it was 497 nM; in experiment [10] it was 192 nM. Moreover, the TGI in experiment [1] was found to be 16.2 µM; in experiment [2] it was 3.17 µM; in [3] it was 31 µM; in experiment [4], 36.7 µM; in experiment [5] it was 1.23 µM; in experiment [6], 11.4 µM. The TGI was determined as 11.6 µM in experiment [7], 10.7 µM in [8], 3.6 µM in experiment [9] and 2.48 µM in [10].
Turning to `COc1ccc(-c2ccc3c(NC(=O)C4CC4)n[nH]c3n2)cc1`, the GI50 is above 20.1 µM in experiment [1]; above 14300 nM in experiment [2]; above 25000 nM in experiment [3]; above 25 µM in experiment [4]; 8020 nM in experiment [5]; above 25000 nM in experiment [6]. Also, the GI50 in experiment [7] is above 25000 nM; in [8], above 25000 nM; in experiment [9] it was 15000 nM; in experiment [10], above 25000 nM. The TGI in [1], in experiment [2], in experiment [3], in experiment [4], in [5] and in [6] was above 25 µM each time. The TGI in experiment [7], in experiment [8], in [9] and in experiment [10] was above 25 µM in each case.
Consider `CC(=O)OCC1OC(OC2C(COC(C)=O)OC(OCCC[S-])C(OC(C)=O)C2OC(C)=O)C(OC(C)=O)C(OC(C)=O)C1OC(C)=O.[Au+].c1ccc(CN2[CH-]N(Cc3ccccc3)C(c3ccccc3)=C2c2ccccc2)cc1` (stereo not given), for which the GI50 was 2.8 µM in [1]; 3370 nM in experiment [2]; 3390 nM in experiment [3]; 3.15 µM in experiment [4]; 2370 nM in experiment [5]; 3230 nM in experiment [6]. For the same compound, the GI50 is 3180 nM in experiment [7], 3450 nM in [8], 3280 nM in [9] and 2140 nM in experiment [10]. Moreover, the TGI in experiment [1] was determined as 8.56 µM; in [2], 14.8 µM; in experiment [3] it was 21.5 µM; in [4], 15.9 µM; in experiment [5], 6.24 µM; in experiment [6], 13.6 µM. Besides, the TGI was determined as 13.6 µM in experiment [7], 12.8 µM in experiment [8], 12.3 µM in [9] and 7.3 µM in experiment [10].
In the case of `Nc1ccc(-c2nc3ccc4[nH]ncc4c3c3c2CCCC3)cc1F`, the GI50 was 1.6 µM in experiment [1]; 1280 nM in experiment [2]; 1500 nM in experiment [3]; 0.215 µM in experiment [4]; 1700 nM in [5]; 1530 nM in [6]. For the same compound, the GI50 in experiment [7] was 1380 nM; in experiment [8] it was 959 nM; in experiment [9], 360 nM; in [10], 2850 nM. The TGI in experiment [1] is 10.3 µM; in experiment [2] it was 7 µM; in [3] it was 12.2 µM; in experiment [4], 3.92 µM; in [5], 11.2 µM; in [6], 18.5 µM. Besides, the TGI was found to be 5.61 µM in [7], 8.51 µM in [8], 2 µM in [9] and 11.1 µM in experiment [10].
As for `CCN(CC)CCN1C(=O)c2c(c(C)c3c(oc4cc(O)ccc43)c2C)C1=O`, the GI50 in experiment [1] was 1.62 µM; in experiment [2], 1670 nM; in experiment [3] it was 2230 nM; in [4], 1.69 µM; in experiment [5] it was 1540 nM; in experiment [6], 2140 nM. For the same compound, the GI50 in experiment [7] is 1570 nM; in experiment [8] it was 1750 nM; in [9] it was 1330 nM; in [10] it was 1560 nM. Moreover, the TGI in [1] was 3.2 µM; in experiment [2], 3.19 µM; in [3], 6.25 µM; in [4] it was 3.3 µM; in experiment [5], 3.14 µM; in [6] it was 5.41 µM. Also, the TGI in experiment [7] turned out to be 3.08 µM; in experiment [8] it was 3.37 µM; in experiment [9], 2.69 µM; in [10] it was 2.98 µM.
Regarding `CCN1CCN(c2nc(NNC(=O)Cc3ccccc3)nc(N3CCN(C(c4ccccc4)c4ccccc4)CC3)n2)CC1`, the GI50 in [1] is 1.74 µM; in experiment [2] it was 1670 nM; in experiment [3], 2510 nM; in [4] it was 9.99 µM; in experiment [5] it was 1890 nM; in experiment [6], 2240 nM. Besides, the GI50 was 1750 nM in [7], 1890 nM in [8], 1920 nM in experiment [9] and 2010 nM in experiment [10]. Besides, the TGI worked out at 3.14 µM in [1]; 3.61 µM in experiment [2]; 6.71 µM in experiment [3]; 30 µM in experiment [4]; 4.7 µM in experiment [5]; 5.66 µM in [6]. In addition, the TGI in [7] was determined as 3.2 µM; in [8], 3.63 µM; in [9] it was 4.08 µM; in [10], 3.99 µM.
With `COc1ccc(OC)c(-c2nc3sccn3c2/C=C2/C(=O)Nc3ccc(Cl)cc32)c1`, the GI50 was 44.7 µM in experiment [1]; 24200 nM in experiment [2]; 32100 nM in experiment [3]; 36.1 µM in experiment [4]; 24400 nM in experiment [5]; 25700 nM in experiment [6]. The GI50 is 17200 nM in experiment [7], 26000 nM in [8], 27600 nM in experiment [9] and 19400 nM in experiment [10]. The TGI in [1] was above 100 µM; in [2] it was 74.3 µM; in experiment [3], above 100 µM; in experiment [4], above 100 µM; in [5], above 100 µM; in [6], 67.3 µM. The TGI in experiment [7] was 44.9 µM; in [8] it was 65 µM; in [9], above 100 µM; in [10], 51.5 µM.
For the compound `O=C(c1ccccc1Nc1ccnc(C(F)(F)F)c1)N1CCN(c2cccc(Cl)c2)CC1`, the GI50 is 23.2 µM in experiment [1]; 15900 nM in [2]; 11200 nM in [3]; 15.4 µM in [4]; 914 nM in experiment [5]; 19200 nM in [6]. The GI50 was 16100 nM in experiment [7], 17600 nM in [8], 16300 nM in experiment [9] and 16500 nM in [10]. Moreover, the TGI was above 84 µM in experiment [1]; 37.3 µM in [2]; above 84.5 µM in experiment [3]; above 87.5 µM in [4]; 25 µM in experiment [5]; 53.3 µM in [6]. Further, the TGI in experiment [7] amounted to 66.7 µM; in experiment [8], 44.6 µM; in experiment [9], 64.8 µM; in experiment [10] it was 65.6 µM.
For `Cc1ccc(Cl)cc1Nc1nc(C(F)(F)F)ccc1C(=O)Nc1cccc(C(F)(F)F)c1`, the GI50 was 3.16 µM in experiment [1]; 3560 nM in experiment [2]; 2800 nM in experiment [3]; 2.7 µM in experiment [4]; 2200 nM in experiment [5]; 2820 nM in experiment [6]. Also, the GI50 in experiment [7] was 3610 nM; in [8], 2790 nM; in experiment [9], 2700 nM; in [10], 3650 nM. The TGI stood at 11.8 µM in experiment [1]; 13.3 µM in [2]; 11 µM in experiment [3]; 10.9 µM in experiment [4]; 8.69 µM in [5]; 12.8 µM in [6]. Moreover, the TGI in experiment [7] amounted to 13.9 µM; in experiment [8], 10.1 µM; in experiment [9], 7.92 µM; in experiment [10], 18.4 µM.
In the case of `COc1ccccc1/C=C\c1cnnc2ccccc12`, the TGI in experiment [1] was above 10 µM; in [2] it was above 10 µM; in experiment [3], above 10 µM; in [4], above 10 µM; in experiment [5], 7.61 µM; in [6], above 10 µM. Besides, the TGI in experiment [7], in experiment [8], in experiment [9] and in [10] was above 10 µM in each case.
`O=C1NC(=O)/C(=C/C=C/c2ccccc2)S1`: the GI50 in [1] is 0.366 µM; in [2] it was 2340 nM; in [3] it was 2010 nM; in [4], 6.1 µM; in experiment [5] it was 11100 nM; in experiment [6], 12100 nM. Moreover, the GI50 in experiment [7] was 5460 nM; in experiment [8] it was 2830 nM; in [9] it was 4950 nM; in experiment [10], 576 nM. The TGI in [1] is 4.27 µM; in [2], 58.1 µM; in experiment [3] it was above 100 µM; in experiment [4], above 100 µM; in [5] it was above 81.1 µM; in experiment [6] it was above 100 µM. Also, the TGI in [7] was above 78.7 µM; in [8] it was 13.8 µM; in experiment [9], 27.8 µM; in experiment [10] it was 6.35 µM.
Take `O=C(O)c1c(O)c2cc(Br)ccc2oc1=O`: the TGI in [1], in [2], in experiment [3], in [4], in experiment [5] and in experiment [6] was above 100 µM throughout. In addition, the TGI in experiment [7], in experiment [8], in [9] and in experiment [10] was above 100 µM each time.
Regarding `O=NC1c2cccc3cccc(c23)C1N=O` (stereo not given), the TGI was 30.5 µM in experiment [1]; 15.6 µM in [2]; 4.25 µM in experiment [3]; 6.76 µM in [4]; 24.5 µM in experiment [5]; 23.7 µM in [6]. For the same compound, the TGI in experiment [7] was 25.7 µM; in experiment [8], 17.5 µM; in experiment [9] it was 14.1 µM; in experiment [10] it was 24.8 µM.
On to `Cl.[Pt].[c-]1ccccc1-c1ccccn1.c1ccc(P(c2ccccc2)C([PH+](c2ccccc2)c2ccccc2)[PH+](c2ccccc2)c2ccccc2)cc1`, for which the GI50 in [1] was 3.2 µM; in experiment [2], 2090 nM; in [3] it was 2400 nM; in experiment [4], 2.3 µM; in experiment [5], 1410 nM; in experiment [6] it was 2300 nM. Further, the GI50 is 2450 nM in [7], 2290 nM in experiment [8], 1480 nM in [9] and 2480 nM in experiment [10]. Further, the TGI in experiment [1] was 14.4 µM; in [2], 6.82 µM; in experiment [3], above 100 µM; in experiment [4], 62.2 µM; in experiment [5], 5.18 µM; in experiment [6] it was 8.13 µM. For the same compound, the TGI came out at 6.65 µM in [7], 10 µM in experiment [8], 4.01 µM in experiment [9] and 12.4 µM in experiment [10].

(Values after PubChem BioAssay (NCI).)
